Test results reported in PubChem BioAssay (NCI).
Values joined by “and” are separate entries in the source; they are usually repeats but may differ in a detail not shown here. Equal entries are not always repeated.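 Results reflect a 48-hour exposure of cells in 96-well plates to compound at five concentrations. GI50 marks 50% less growth. The concentration for full growth arrest is given as TGI.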 Where a SMILES comes first, the peptide text is derived from it. [ ]: non-standard residue; d: D form. The star is where a group is joined. NMeF = CN[C@@H](Cc1ccccc1)C(=O)O; NMeV = CN[C@H](C(=O)O)C(C)C; Boc = CC(C)(C)OC(=O)*; OBn = c1ccc(CO*)cc1

Columns and labels:
Experiment in all cases: inhibition of tumour cell growth, NCI panel, 48 h
RXF 393 renal = system: RXF 393 renal
DLD-1 colon = system: DLD-1 colon
NCI-H522 lung = system: NCI-H522 lung
786-0 renal = system: 786-0 renal
CCRF-CEM leukemia = system: CCRF-CEM leukemia
KM20L2 colon = system: KM20L2 colon
SK-MEL-2 melanoma = system: SK-MEL-2 melanoma
SNB-75 CNS = system: SNB-75 CNS
SF-295 CNS = system: SF-295 CNS
T-47D breast = system: T-47D breast

SMILES | TGI (RXF 393 renal) | TGI (DLD-1 colon) | TGI (NCI-H522 lung) | TGI (786-0 renal) | TGI (CCRF-CEM leukemia) | TGI (KM20L2 colon) [µM] | TGI (SK-MEL-2 melanoma) | TGI (SNB-75 CNS) | TGI (SF-295 CNS) | GI50 (RXF 393 renal) | TGI (T-47D breast) [µM] | GI50 (786-0 renal) [µM] | GI50 (CCRF-CEM leukemia) [µM] | GI50 (SNB-75 CNS) [µM] | GI50 (SF-295 CNS) | GI50 (DLD-1 colon) [µM] | GI50 (NCI-H522 lung) [µM] | GI50 (KM20L2 colon) | GI50 (SK-MEL-2 melanoma) [µM]
CN(C)C1=NC2=S(SC(Nc3ccccc3)=N2)S1 (stereo unspecified) | > 100 µM | > 100 µM | 60.2 µM | > 100 µM | > 100 µM | > 100 | > 100 µM | 60.6 µM | 88.9 µM |  |  |  |  |  |  |  |  |  | 
COC(=O)C1=C(c2ccc3c(c2)OCO3)OC(c2ccc3c(c2)OCO3)C1 (stereo unspecified) | > 100 µM | > 100 µM |  | > 100 µM | > 100 µM | > 100 | > 100 µM | > 100 µM | > 100 µM |  |  |  |  |  |  |  |  |  | 
CC(C)[C@@H](C(=O)N1CCC[C@H]1C(=O)OCc1ccccc1)N(C)C(=O)[C@H](C(C)C)N(C)C(=O)[C@H](Cc1ccccc1)N(C)C(=O)[C@H](NC(=O)OC(C)(C)C)C(C)C (Boc-[dV][NMeF][NMeV][NMeV]P-OBn) | > 50 µM and 65.3 µM | > 100 µM | > 50 µM | > 100 µM | > 100 µM | > 100 | > 100 µM | > 100 µM | > 100 µM | 22.4 µM | > 50 | 39.5 | 36.9 | > 100 | > 100 µM |  |  |  | 
O=C(O)c1cccc2cccc(C(=O)O)c12.[Hg] | 32.3 µM | 23 µM | 2.42 µM | 29.1 µM | 29.2 µM | > 100 | 31.6 µM | 36.9 µM | 32.2 µM | 16.8 µM |  | 15.4 | 6.92 | 18.9 | 17.8 µM | 8.42 | 0.687 | > 100 µM | 17.4
COc1ccc(C(=O)CC(=O)C(=O)Nc2ccc(C)c(C)c2)cc1 | 97.9 µM | > 100 µM | > 100 µM | > 100 µM | > 74.5 µM | > 100 | > 100 µM | 94.6 µM | > 100 µM |  |  |  |  |  |  |  |  |  | 
NCCCNCCSSC/C=C\CSSCCNCCCN | > 100 µM | > 100 µM | 42.5 µM and 24.7 µM | > 100 µM | 32.3 µM and 62.5 µM | > 100 | > 100 µM | > 100 µM | > 100 µM | 83.3 µM and 30.6 µM |  |  |  |  | 81.3 µM and 39.9 µM |  |  | > 100 µM and 38.9 µM | 
NC(=O)CCC(NC(=O)Cc1ccccc1)C(=O)O (stereo unspecified) (tested in a mixture with another compound) | 2030 µM and > 8130 µM | > 8130 µM | > 8130 µM | > 8130 µM | > 8130 µM | > 8130 | > 8130 µM | 1680 µM and > 8130 µM | > 8130 µM |  |  |  |  |  |  |  |  |  | 
OCC1OC(n2cnc3c2NC=NC[C@H]3O)CC1O (stereo partly specified) | 500 µM and > 588 µM | 500 µM and > 588 µM | 500 µM and > 588 µM | 500 µM and > 588 µM | 492 µM and > 588 µM | > 588 | 500 µM and > 588 µM | 498 µM and > 588 µM | 475 µM and > 588 µM | > 588 µM | 281 | > 588 | > 588 | > 588 | > 588 µM | > 588 | > 588 | > 588 µM | > 588
CCOC(=O)C(=O)Nc1c(C)cccc1C(C)C |  | > 100 µM | > 100 µM | > 100 µM | > 100 µM | > 100 | > 100 µM | > 100 µM | > 100 µM |  |  |  |  |  |  |  |  |  | 
COc1ccc(NC(=O)CC(=O)N2N=C(N(CCC#N)c3cccc(C)c3)CC2c2ccccc2)cc1 (stereo unspecified) | > 100 µM | > 100 µM | > 100 µM | > 100 µM | > 100 µM | > 100 | > 100 µM | > 100 µM | > 100 µM |  |  |  |  |  |  |  |  |  | 
CC(C(=O)O)/C(=C\c1ccc2c(c1)OCO2)C(=O)O (stereo unspecified) | > 100 µM | > 100 µM | > 100 µM | > 100 µM |  | > 100 | > 100 µM | > 100 µM | > 100 µM |  | > 100 |  |  |  |  |  |  |  | 
O=C1c2cc([N+](=O)[O-])cc3cc([N+](=O)[O-])cc(c23)C(=O)N1CCCNCCNCCCN1C(=O)c2cc([N+](=O)[O-])cc3cc([N+](=O)[O-])cc(c23)C1=O | 0.375 µM | 3.24 µM | 1.13 µM | 3.35 µM | 6.46 µM | 5.09 | 0.323 µM | 2.57 µM | 8 µM |  | 6.72 |  |  |  |  |  |  |  | 
COC(=O)C1=C(CS(=O)c2ccc([N+](=O)[O-])cc2[N+](=O)[O-])ON(C)C1c1ccccc1 (stereo unspecified) | > 80.7 µM | > 100 µM | 32.1 µM | > 100 µM | 37.9 µM | > 72.6 | > 100 µM | 77.6 µM | > 100 µM |  |  |  |  |  |  |  |  |  | 
O=C(c1nc2ccc(Cl)cc2[nH]c1=O)C(O)c1ccc2c(c1)OCO2 (stereo unspecified) | > 100 µM | > 100 µM | > 100 µM | > 100 µM | > 100 µM | > 100 | > 100 µM | > 100 µM | > 100 µM |  |  |  |  |  |  |  |  |  | 
CCC[CH2][Sn]1([CH2]CCC)[O]CC(CN2CCOCC2)[O]1 (stereo unspecified) | 3.31 µM | 16.8 µM | 2.55 µM | 7.39 µM | 4.84 µM | 19.1 | 3.66 µM | 7.05 µM | 10.9 µM | 1.65 µM |  | 2.63 | 0.995 | 2.16 | 2.46 µM | 4.46 | 1.12 | 5.35 µM | 1.53
Brc1ccccc1C=NC12CC3CC(CC(C3)C1)C2 | > 100 µM | > 100 µM | > 100 µM | > 100 µM | > 100 µM | > 100 | > 100 µM | > 100 µM | > 100 µM |  | > 100 |  |  |  |  |  |  |  | 
CCOC(=O)N[C@@H]1C2CC(=O)C(O2)[C@@H]1OC (stereo partly specified) | > 100 µM | > 100 µM | > 100 µM | > 100 µM | > 100 µM | > 100 | > 100 µM | > 100 µM | > 100 µM |  |  |  |  |  |  |  |  |  | 
COC1OC(COS(=O)(=O)c2ccc(C)cc2)C(O)C(OS(=O)(=O)c2ccc(C)cc2)C1OS(=O)(=O)c1ccc(C)cc1 (stereo unspecified) | > 100 µM | > 100 µM | > 100 µM | > 100 µM | > 100 µM | > 100 | > 100 µM | > 100 µM | > 100 µM |  |  |  |  |  |  |  |  |  | 
CCOC(=O)C(C(=O)OCC)=C1N[C@H](C(=O)OCC)CS1 | > 100 µM | > 100 µM | > 100 µM | > 100 µM | > 100 µM | > 100 | > 100 µM |  | > 100 µM |  |  |  |  |  |  |  |  |  | 
CCCc1nc(NC#N)nc(C(=O)NC23CC4CC(CC(C4)C2)C3)c1C | > 100 µM | > 100 µM | > 100 µM | > 100 µM | > 100 µM | > 100 | > 100 µM | > 100 µM | > 100 µM |  |  |  |  |  |  |  |  |  | 
CNC(=O)NC(CCCCNC(=O)OCc1ccccc1)C(=O)OCc1ccccc1 (stereo unspecified) | 53.6 µM | > 100 µM | 21.4 µM | > 100 µM | 71.8 µM | > 100 | 38.4 µM | 43.9 µM | > 100 µM |  | 51.3 |  |  |  |  |  |  |  | 
